{
  "source": "patent US12097195B2",
  "about": "“Pharmaceutical composition containing alkynyl compound and preparation method and application thereof” (ASCENTAGE PHARMA (SUZHOU) CO., LTD., priority 2019, dated 2024)",
  "origin": "cited, not measured here",
  "data": [
    {"compound": "Cc1ccc(C(=O)Nc2ccc(CN3CCN(C)CC3)c(C(F)(F)F)c2)cc1C#Cc1cnc2[nH]ncc2c1", "note": "[alknyl compound, 3-((1H-pyrazolo[3,4-b]pyridin-5-yl)ethynyl)-4-methyl-N-(4-((4-methylpiperazin-1-yl)methyl)-3-(trifluoromethyl)phenyl)-benzamide]", "values": [
      {"measurement": "inhibition rate", "setting": "acute leukemia MOLT", "value": "very good inhibition rate"},
      {"measurement": "inhibition rate", "setting": "chronic leukemia K562", "value": "very good inhibition rate"}
    ]}
  ]
}
